{"source": "patent US20230338453A1", "about": "“PROCESS FOR PRODUCING A HYDROLYSATE OF SCUTELLARIA ROOT, WHICH IS ENRICHED AND STANDARDIZED WITH FLAVONOIDS OF INTEREST, THE HYDROLYSATE OBTAINED BY SUCH A PROCESS, AND COSMETIC AND DERMOCOSMETIC APPLICATIONS OF SUCH A HYDROLYSATE” (EXSYMOL, priority 2020, published 2023)", "tested_on": "pro-inflammatory cytokine IL-6", "test": "Test 1: IL-6 secretion by stress-induced senescent fibroblasts (ELISA)", "assay_type": "cell-based, human", "description": "Experimentally, the test was carried out on primary human fibroblasts (abbreviation “NHDF” for “Normal Human Dermal Fibroblasts”) isolated from breast plastic surgery from a patient. These NHDFs were cultured in a complete “DMEM” culture medium (with 4.5 g/l of glucose and 10% of fetal calf serum (FCS)), then maintained in an atmosphere at 37° C. and 10% of CO2. On D-2, the fibroblasts were seeded in 6-well plates at a rate of 1.10^4 cells/cm^2. On D0, the fibroblasts were subjected to stress inducing premature senescence ([…] hydrogen peroxide, H2O2, for 2 hours), then incubated at 37° C. and 10% CO2 for 72 hours in order to leave senescence settle. On D+3, these senescent fibroblasts induced by such stress (abbreviation “SIPS-fibro” for “Stress-Induced Premature Senescent-fibroblasts”) were incubated for 24 hours in the presence of different weight ratios of wogonin to baicalein (abbreviation “W/B”) of synthetic origin. On D+4, the culture supernatants were harvested in order to perform an ELISA assay for the pro-inflammatory cytokine IL-6 (“R&DSystem kit, ref. D6050”). The results obtained were then normalized with respect to the quantity of cells per condition and subjected to statistical analysis in triplicate. The results are collated in Table 1 below, in particular expressed as % inhibition of IL-6 secretion relative to the senescent control.", "data": [{"smiles": "COc1c(O)cc(O)c2c(=O)cc(-c3ccccc3)oc12", "note": "[wogonine, 5,7-dihydroxy-8-methoxyflavone]", "values": [{"measurement": "% inhibition of IL-6 secretion", "setting": "relative to the senescent control, senescent NHDF, 24 hours", "value": "−10", "unit": "%"}, {"measurement": "Amount of IL-6 secreted", "setting": "senescent NHDF (H2O2 stress), incubated 24 hours with compound, ELISA", "value": 9.1, "unit": "ng/10^6 cells"}]}]}
